Consider one molecule from paper PMC12266748, “A Xanthine Derivative With Novel Heat Shock Protein 90‐Alpha Inhibitory and Senolytic Properties” (Aging Cell, 2025).

One assay relates to MCF7 cells. As to the kind of experiment: Annexin V staining of senescent MCF7 (Incucyte). The format is cell-based, Homo sapiens. The following applies: Tamoxifen-induced senescent MCF7, K5 10 μM, after 24 h, over 96 h. On the procedure:
Senescent MCF7 cells were treated with K5 and Incucyte Annexin V NIR Dye (Sartorius). Cells were monitored using the Incucyte live‐cell Analysis system (Sartorius). Images were acquired using the phase microscopy EVOS XL Core at 10× magnification and analyzed using the ImageJ software.
Annexin V staining. MCF7 were plated 24 h before the treatment with 4-Hydroxytamoxifen (TAM) 10 μM for 96 h to induce the senescence described by (Lee et al. 2014). Control cultures were treated with equal volumes of 75% ethanol as the vehicle. Then, cells were washed and treated with the senolytic drug K5 10 µM and DMSO as solvent control for another 96 h and with the Incucyte Annexin V NIR Dye (1:200, Sartorius). Cells were monitored using the Incucyte live-cell Analysis system (Sartorius). The images were acquired using the phase microscopy EVOS XL Core at 10X magnification and analyzed using the ImageJ software. The mean signal intensity was then normalized for the total number of cells.

A further assay relates to IMR90 cells. The assay can be described thus: Immunofluorescence of Cytochrome C / mitochondria colocalization in senescent IMR90. The settings on record: senescent IMR90 (PD21), 48 h, K5 25 μM, Dasatinib 1 μM; Vehicle OR = 0.913. The format is cell-based, Homo sapiens. On the procedure: Treated/untreated senescent IMR90 and MCF7 cells were fixed, permeabilized, and stained following suppliers' recommendations. Images were acquired using an Olympus IX83 research inverted microscope (IF) and a phase microscopy Nikon ECLIPSE Ei R (IHC) at 40× MAG.
Immunofluorescence staining. Treated/untreated IMR90 and MCF7 cells were cultured in LabTek II chamber slides (Nunc, Biosigma). At the final time point, cells were stained with 500 nM MitoTracker Orange (Thermo Fisher Scientific) for 30 min at 37°C and then fixed in 4% PFA (Merck) for 10 min, RT, and permeabilized with 0.1% Triton solution (Merck) for 30 min at RT. Samples were blocked in 5% BSA for 90 min, incubated overnight at 4°C with primary antibody against Cytochrome C (1:50, RbMAb, Abcam), and 1h at RT with secondary antibody Alexa Fluor 488 goat anti-Rb (1:200, Thermo Fisher Scientific). Nuclei were stained with DAPI (Cell Signaling) for 10 min at RT, and ProLong Glass Antifade Mountant (Thermo Fisher Scientific) was used to seal coverslips. Images were acquired using an Olympus IX83 research inverted microscope at 40X magnifications.

The subject of a further assay is Drosophila melanogaster. The assay can be described thus: Drosophila melanogaster lifespan assay. The class given is in vivo. On the procedure: Experiments were carried out with wild‐type Canton‐S Drosophila melanogaster, originating (Stock #64349) from the Bloomington Drosophila Stock Centre (Indiana University). Flies were reared on Nutri‐Fly Bloomington Formulation food medium (Genesee Scientific). Vials containing only fresh food were alternated with vials containing food supplemented with K5. The number of living flies was counted every 2–3 days. Detailed protocols are reported in the extended section.
Drosophila melanogaster maintenance and lifespan assays. All experiments were carried out with wild-type Canton-S Drosophila melanogaster. Canton-S flies originated (Stock #64349) from the Bloomington Drosophila Stock Centre (Indiana University, Bloomington, IN, USA). Flies were reared on Nutri-Fly Bloomington Formulation food medium (Genesee Scientific, El Cajon, CA, USA) prepared using 176 g of Nutri-Fly per liter of distilled H2O. After cooling to 70°C, 4.8 mL of propionic acid (Merck KGaA, Darmstadt, Germany) per liter of food was added. Flies were maintained at constant temperature (25.0 ± 0.2°C) with 60% relative humidity on a 12 h:12 h 300 lux light-dark cycle generated by a 4000°K LED lamp (Fridge 1.5W, Ecoman Italia S.r.l., Frascati, Italy).
For lifespan assays, newly enclosed Drosophila melanogaster (1 to 2 days old) were collected and placed separately in vials (each containing 10 male and 10 female flies). Two experiments were performed. In the first experiment, 300 flies were randomly divided into three groups (CTRL, K5 10 µg/mL, and K5 100 µg/mL). Vials containing only fresh food (Nutri-Fly Bloomington Formulation food medium) were alternated 3 times a week with vials containing food supplemented with K5. The K5 was dissolved in DMSO and then diluted 1:10 in corn oil. 5 µL of corn oil (containing 0, 10 µg, or 100 µg of K5) was added to each mL of freshly prepared Nutri-Fly Bloomington Formulation food medium. In the second experiment, 900 flies were divided by sex into CTRL group and K5 10 µg/mL treated group. […] All experiments counted the number of living flies every 2–3 days.

SMILES strings stand for the structures.

For `Cc1ccccc1-n1c(=O)n(Cc2ccccc2)c(=O)c2[nH]cnc21` [Compound K5, 1-benzyl-3-(2-methylphenyl)-7H-purine-2,6-dione], the “Annexin V signal” value in the assay on MCF7 cells was “significant and stable increase”. Further, the “Cytochrome C / mitochondria colocalization, Overlap R (OR)” value with IMR90 cells was 0.454. The “effect on lifespan, preliminary treatment” value with Drosophila melanogaster (K5 10 μg/mL and 100 μg/mL, 100 flies per group, p = 0.034) is “significant overall difference in lifespan”. Further, the “increase of average lifespan compared to controls” value in the assay on Drosophila melanogaster (K5 10 μg/mL in food from day 20, n = 884) is 6.63%. The “average lifespan of treated flies” value in the assay with Drosophila melanogaster (K5 10 μg/mL in food from day 20, n = 884, controls 47.54 days ± 0.74 SE) worked out at 50.69 days.
